SMILES strings stand for the structures. Where a name gives a salt, the structure may show the parent alone.

The target in test [1] is ATP-binding cassette sub-family C member 2 (Homo sapiens, UniProt Q92887). The test is described as follows: Inhibition of human MRP2 overexpressed in Sf9 cell membrane vesicles assessed as uptake of [3H]-estradiol-17beta-D-glucuronide in presence of ATP and GSH measured after 20 mins by membrane vesicle transport assay.
The target in another test is Bile salt export pump (Homo sapiens, UniProt O95342). The test is described as follows: Inhibition of human BSEP overexpressed in Sf9 cell membrane vesicles assessed as uptake of [3H]-taurocholate in presence of ATP measured after 15 to 20 mins by membrane vesicle transport assay. The class given is ADME, cell-based.
In test [2] the target is T1, ATP-binding cassette sub-family C member 4 (Homo sapiens, UniProt O15439).
T1 sequence (O15439 whole entry): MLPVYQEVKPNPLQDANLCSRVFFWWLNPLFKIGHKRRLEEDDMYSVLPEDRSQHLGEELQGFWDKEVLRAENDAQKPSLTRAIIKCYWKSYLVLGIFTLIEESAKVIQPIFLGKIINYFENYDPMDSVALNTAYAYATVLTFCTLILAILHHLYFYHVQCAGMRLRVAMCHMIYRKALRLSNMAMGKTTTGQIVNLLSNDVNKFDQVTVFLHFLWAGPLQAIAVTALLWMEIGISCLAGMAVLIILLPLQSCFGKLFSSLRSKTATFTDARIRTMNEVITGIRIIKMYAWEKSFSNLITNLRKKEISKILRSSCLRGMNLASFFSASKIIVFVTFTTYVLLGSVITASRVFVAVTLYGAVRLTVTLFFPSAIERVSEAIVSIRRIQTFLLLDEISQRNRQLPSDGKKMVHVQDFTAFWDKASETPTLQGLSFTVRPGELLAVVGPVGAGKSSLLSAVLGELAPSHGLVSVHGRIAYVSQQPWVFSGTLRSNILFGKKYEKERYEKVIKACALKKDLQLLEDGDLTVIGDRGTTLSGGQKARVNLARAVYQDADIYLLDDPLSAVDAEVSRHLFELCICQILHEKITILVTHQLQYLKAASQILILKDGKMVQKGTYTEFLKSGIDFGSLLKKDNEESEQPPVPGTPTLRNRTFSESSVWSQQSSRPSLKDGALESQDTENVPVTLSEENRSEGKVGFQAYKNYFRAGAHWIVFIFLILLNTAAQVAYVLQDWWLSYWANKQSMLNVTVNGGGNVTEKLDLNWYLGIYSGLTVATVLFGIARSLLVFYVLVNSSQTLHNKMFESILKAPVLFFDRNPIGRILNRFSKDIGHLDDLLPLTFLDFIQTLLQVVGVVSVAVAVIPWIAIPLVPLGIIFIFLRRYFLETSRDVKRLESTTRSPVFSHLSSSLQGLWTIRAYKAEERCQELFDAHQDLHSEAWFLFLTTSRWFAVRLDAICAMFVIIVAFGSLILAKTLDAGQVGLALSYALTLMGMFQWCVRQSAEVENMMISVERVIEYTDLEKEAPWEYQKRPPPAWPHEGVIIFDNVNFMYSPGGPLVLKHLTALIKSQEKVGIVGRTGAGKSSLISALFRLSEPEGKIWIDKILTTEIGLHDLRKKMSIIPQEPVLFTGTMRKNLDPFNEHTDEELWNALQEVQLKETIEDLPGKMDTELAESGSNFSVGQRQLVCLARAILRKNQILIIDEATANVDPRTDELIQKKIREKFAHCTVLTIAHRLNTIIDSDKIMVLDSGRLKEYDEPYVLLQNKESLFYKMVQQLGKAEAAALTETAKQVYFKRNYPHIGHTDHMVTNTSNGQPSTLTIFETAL
Nature of the test: Inhibition of human MRP4 overexpressed in Sf9 cell membrane vesicles assessed as uptake of [3H]-estradiol-17beta-D-glucuronide in presence of ATP and GSH measured after 20 mins by membrane vesicle transport assay. The class given is ADME, cell-based.

Test [3] deals with ATP-binding cassette sub-family C member 3 (Homo sapiens, UniProt O15438). The test is described as follows: Inhibition of human MRP3 overexpressed in Sf9 insect cell membrane vesicles assessed as uptake of [3H]-estradiol-17beta-D-glucuronide in presence of ATP and GSH measured after 10 mins by membrane vesicle transport assay. In kind it is ADME, cell-based.
Chain of ATP-binding cassette sub-family C member 3 (O15438 whole entry): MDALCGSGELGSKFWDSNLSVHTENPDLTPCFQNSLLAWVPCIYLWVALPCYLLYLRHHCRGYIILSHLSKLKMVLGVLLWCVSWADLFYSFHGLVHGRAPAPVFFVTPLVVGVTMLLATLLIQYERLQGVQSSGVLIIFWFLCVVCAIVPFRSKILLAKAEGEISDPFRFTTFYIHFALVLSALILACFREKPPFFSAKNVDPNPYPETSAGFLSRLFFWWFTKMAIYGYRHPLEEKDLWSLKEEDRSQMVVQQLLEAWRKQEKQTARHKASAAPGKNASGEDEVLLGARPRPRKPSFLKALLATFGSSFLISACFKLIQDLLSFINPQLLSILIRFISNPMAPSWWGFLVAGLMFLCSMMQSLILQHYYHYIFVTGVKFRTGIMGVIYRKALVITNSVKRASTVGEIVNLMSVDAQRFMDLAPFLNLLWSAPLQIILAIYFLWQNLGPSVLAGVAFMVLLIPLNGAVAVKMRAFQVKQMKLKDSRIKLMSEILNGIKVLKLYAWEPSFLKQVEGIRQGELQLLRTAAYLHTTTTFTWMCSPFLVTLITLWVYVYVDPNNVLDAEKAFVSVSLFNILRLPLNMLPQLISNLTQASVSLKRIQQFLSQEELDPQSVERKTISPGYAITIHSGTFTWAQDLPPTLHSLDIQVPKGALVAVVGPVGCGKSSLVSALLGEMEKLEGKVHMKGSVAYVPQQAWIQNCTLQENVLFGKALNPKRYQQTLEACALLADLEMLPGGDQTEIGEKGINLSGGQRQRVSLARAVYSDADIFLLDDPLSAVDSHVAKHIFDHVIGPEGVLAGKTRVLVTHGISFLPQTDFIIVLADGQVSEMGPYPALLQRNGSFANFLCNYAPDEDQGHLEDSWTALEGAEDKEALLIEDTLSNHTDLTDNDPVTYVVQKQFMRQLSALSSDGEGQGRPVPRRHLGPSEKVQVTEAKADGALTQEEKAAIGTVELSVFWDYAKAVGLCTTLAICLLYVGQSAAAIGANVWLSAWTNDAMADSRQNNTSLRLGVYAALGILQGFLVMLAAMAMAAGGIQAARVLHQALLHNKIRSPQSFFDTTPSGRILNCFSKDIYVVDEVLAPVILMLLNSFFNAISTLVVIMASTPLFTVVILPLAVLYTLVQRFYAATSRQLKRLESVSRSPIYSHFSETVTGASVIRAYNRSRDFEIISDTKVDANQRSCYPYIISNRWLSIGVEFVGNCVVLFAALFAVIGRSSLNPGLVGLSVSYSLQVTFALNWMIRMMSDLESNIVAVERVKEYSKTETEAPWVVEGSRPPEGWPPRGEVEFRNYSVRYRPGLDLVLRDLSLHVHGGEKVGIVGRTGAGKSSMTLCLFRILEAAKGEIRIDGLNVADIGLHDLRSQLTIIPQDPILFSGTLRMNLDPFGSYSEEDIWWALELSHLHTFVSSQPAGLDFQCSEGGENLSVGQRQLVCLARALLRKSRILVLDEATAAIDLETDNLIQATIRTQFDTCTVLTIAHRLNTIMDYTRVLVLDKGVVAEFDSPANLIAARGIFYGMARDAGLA

Chain of Bile salt export pump (O95342 whole entry): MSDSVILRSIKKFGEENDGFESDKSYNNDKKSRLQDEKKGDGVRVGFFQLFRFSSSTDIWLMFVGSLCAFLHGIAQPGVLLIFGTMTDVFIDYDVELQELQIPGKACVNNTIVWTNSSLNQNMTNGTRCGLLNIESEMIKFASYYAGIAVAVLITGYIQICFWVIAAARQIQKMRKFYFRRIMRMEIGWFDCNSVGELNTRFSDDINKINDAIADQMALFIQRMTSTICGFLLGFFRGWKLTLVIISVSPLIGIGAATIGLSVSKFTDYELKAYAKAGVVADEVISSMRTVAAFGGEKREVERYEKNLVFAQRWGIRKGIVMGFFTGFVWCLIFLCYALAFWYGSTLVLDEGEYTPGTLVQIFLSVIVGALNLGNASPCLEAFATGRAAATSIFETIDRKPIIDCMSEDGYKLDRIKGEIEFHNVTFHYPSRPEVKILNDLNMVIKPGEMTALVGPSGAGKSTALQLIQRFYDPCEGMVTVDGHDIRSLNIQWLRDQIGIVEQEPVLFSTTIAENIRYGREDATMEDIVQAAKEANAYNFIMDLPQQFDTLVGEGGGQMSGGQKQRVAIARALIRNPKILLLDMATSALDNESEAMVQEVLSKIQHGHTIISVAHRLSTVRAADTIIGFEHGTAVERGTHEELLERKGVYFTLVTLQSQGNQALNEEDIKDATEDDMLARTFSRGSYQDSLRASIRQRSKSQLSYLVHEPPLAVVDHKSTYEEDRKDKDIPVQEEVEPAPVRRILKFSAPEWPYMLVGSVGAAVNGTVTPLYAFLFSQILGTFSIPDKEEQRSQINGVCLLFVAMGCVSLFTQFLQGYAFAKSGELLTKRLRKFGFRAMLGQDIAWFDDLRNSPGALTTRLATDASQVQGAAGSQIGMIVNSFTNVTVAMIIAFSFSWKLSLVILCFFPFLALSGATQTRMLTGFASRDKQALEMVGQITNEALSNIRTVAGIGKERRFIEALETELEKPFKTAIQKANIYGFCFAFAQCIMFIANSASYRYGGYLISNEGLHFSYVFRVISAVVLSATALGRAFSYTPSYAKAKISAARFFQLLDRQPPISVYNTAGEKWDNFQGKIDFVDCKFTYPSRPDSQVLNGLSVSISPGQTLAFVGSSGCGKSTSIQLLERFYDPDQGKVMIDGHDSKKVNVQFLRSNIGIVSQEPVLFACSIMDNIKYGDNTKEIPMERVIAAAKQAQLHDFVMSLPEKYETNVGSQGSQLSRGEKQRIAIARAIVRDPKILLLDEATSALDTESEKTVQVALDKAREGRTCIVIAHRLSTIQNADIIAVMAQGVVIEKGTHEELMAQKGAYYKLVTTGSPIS
Chain of ATP-binding cassette sub-family C member 2 (Q92887 whole entry): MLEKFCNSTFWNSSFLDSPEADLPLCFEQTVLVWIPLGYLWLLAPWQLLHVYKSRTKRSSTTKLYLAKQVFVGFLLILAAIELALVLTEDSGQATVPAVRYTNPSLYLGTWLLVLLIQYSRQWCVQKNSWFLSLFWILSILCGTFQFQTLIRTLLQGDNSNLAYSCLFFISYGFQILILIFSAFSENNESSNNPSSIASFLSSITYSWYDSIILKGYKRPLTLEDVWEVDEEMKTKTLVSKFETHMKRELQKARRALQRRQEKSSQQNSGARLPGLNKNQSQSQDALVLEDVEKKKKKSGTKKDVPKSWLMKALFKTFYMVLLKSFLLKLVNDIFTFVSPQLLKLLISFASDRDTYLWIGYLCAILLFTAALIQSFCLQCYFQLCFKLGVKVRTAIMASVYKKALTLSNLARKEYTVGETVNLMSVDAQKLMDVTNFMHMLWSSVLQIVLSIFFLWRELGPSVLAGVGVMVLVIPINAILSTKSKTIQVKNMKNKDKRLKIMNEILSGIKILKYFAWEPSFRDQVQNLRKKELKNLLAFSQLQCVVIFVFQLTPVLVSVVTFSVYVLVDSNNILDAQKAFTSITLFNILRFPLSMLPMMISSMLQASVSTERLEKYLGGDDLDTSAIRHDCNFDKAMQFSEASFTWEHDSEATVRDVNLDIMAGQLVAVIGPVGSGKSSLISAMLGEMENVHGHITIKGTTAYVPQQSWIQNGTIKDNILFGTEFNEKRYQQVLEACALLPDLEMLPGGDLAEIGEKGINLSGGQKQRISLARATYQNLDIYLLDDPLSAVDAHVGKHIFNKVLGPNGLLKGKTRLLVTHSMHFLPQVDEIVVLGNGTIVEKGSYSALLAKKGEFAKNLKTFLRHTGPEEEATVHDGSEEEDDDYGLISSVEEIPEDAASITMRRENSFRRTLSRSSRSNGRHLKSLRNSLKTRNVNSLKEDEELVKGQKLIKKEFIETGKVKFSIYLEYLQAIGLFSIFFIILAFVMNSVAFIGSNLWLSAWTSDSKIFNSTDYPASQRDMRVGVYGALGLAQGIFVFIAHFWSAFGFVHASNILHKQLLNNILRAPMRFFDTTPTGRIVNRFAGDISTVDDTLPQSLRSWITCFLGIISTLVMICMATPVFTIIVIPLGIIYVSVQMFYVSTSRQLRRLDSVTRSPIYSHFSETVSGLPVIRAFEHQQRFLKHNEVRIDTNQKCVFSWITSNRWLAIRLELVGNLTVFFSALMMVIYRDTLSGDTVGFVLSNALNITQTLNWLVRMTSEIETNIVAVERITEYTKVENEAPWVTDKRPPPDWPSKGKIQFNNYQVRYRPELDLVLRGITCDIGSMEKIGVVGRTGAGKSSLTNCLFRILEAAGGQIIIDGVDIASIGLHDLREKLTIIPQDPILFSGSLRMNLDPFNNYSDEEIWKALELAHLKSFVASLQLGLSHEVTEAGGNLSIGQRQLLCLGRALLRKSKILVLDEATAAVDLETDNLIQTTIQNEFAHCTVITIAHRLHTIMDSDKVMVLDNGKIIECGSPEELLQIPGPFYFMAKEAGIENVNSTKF

Broadly, the IC50 is the concentration needed to halve the response being measured. As to `O=[N+]([O-])C(Br)(CO)CO` [BRONOPOL], the IC50 (in test [1]; on Bile salt export pump; in test [2]; in test [3]) was > 133 µM throughout.

Consider `CCCCN1CCCCC1C(=O)Nc1c(C)cccc1C` (centres undefined) [BUPIVACAINE HYDROCHLORIDE], for which the IC50 (in test [1]; on Bile salt export pump; in test [2]; in test [3]) was > 133 µM throughout.

With `CC(NC(C)(C)C)C(=O)c1cccc(Cl)c1` (centres undefined) [BUPROPION HYDROCHLORIDE], the IC50 (in test [1]; on Bile salt export pump; in test [2]; in test [3]) was > 133 µM in each case.

Take `CS(=O)(=O)OCCCCOS(C)(=O)=O` [BUSULFAN]: the IC50 (in test [1]; on Bile salt export pump; in test [2]; in test [3]) was > 133 µM each time.

In the case of `Oc1ccc2c(c1)[C@@]13CCCC[C@@]1(O)[C@@H](C2)N(CC1CCC1)CC3` [BUTORPHANOL], the IC50 (in test [1]; at Bile salt export pump; in test [2]; in test [3]) was > 133 µM in each case.

For `C=CCN1C[C@H](C(=O)N(CCCN(C)C)C(=O)NCC)C[C@@H]2c3cccc4[nH]cc(c34)C[C@H]21` [CABERGOLINE], the IC50 (in test [1]; at Bile salt export pump; in test [2]; in test [3]) was > 133 µM each time.

`CC[C@@]1(O)C(=O)OCc2c1cc1n(c2=O)Cc2cc3ccccc3nc2-1` [CAMPTOTHECIN]: the IC50 was > 133 µM in test [1], > 133 µM on Bile salt export pump, 7.4 µM in test [2] and > 133 µM in test [3].

In the case of `C[C@H](CS)C(=O)N1CCC[C@H]1C(=O)O` [CAPTOPRIL], the IC50 (in test [1]; on Bile salt export pump; in test [2]; in test [3]) was > 133 µM each time.

As to `NC(=O)N1c2ccccc2C=Cc2ccccc21` [CARBAMAZEPINE], the IC50 (in test [1]; at Bile salt export pump; in test [2]; in test [3]) was > 133 µM each time.

Consider `C[C@@](Cc1ccc(O)c(O)c1)(NN)C(=O)O` [CARBIDOPA ANHYDROUS], for which the IC50 (in test [1]; on Bile salt export pump; in test [2]; in test [3]) was > 133 µM each time.

`ClC(Cl)(Cl)Cl` [CARBON TETRACHLORIDE]: the IC50 (in test [1]; at Bile salt export pump; in test [2]; in test [3]) was > 133 µM throughout.

For the compound `O=NN(CCCl)C(=O)NCCCl` [CARMUSTINE], the IC50 (in test [1]; at Bile salt export pump; in test [2]; in test [3]) was > 133 µM in each case.

Consider `CC(C(=O)O)c1ccc2c(c1)[nH]c1ccc(Cl)cc12` (centres undefined) [CARPROFEN], for which the 50% inhibitory concentration (IC50) was > 133 µM in test [1], > 133 µM on Bile salt export pump, 3 µM in test [2] and > 133 µM in test [3].

Take `COc1ccccc1OCCNCC(O)COc1cccc2[nH]c3ccccc3c12` (centres undefined) [CARVEDILOL]: the half-inhibitory concentration (IC50) (in test [1]; at Bile salt export pump; in test [2]; in test [3]) was > 133 µM throughout.

With `N[C@@H](C(=O)N[C@@H]1C(=O)N2C(C(=O)O)=C(Cl)CS[C@H]12)c1ccccc1` [CEFACLOR ANHYDROUS], the IC50 (in test [1]; on Bile salt export pump; in test [2]; in test [3]) was > 133 µM in each case.

As for `Cc1nnc(SCC2=C(C(=O)O)N3C(=O)[C@@H](NC(=O)Cn4cnnn4)[C@H]3SC2)s1` [CEFAZOLIN SODIUM], the half-inhibitory concentration (IC50) in test [1] is > 133 µM; on Bile salt export pump, > 133 µM; in test [2] it was 54.2 µM; in test [3] it was > 133 µM.

In the case of `C=CC1=C(C(=O)O)N2C(=O)[C@@H](NC(=O)/C(=N\OCC(=O)O)c3csc(N)n3)[C@H]2SC1` [CEFIXIME], the half-maximal inhibitory concentration (IC50) was 89.4 µM in test [1], > 133 µM at Bile salt export pump, > 133 µM in test [2] and > 133 µM in test [3].

`CO/N=C(\C(=O)N[C@@H]1C(=O)N2C(C(=O)O)=C(COC(C)=O)CS[C@H]12)c1csc(N)n1` [CEFOTAXIME SODIUM]: the IC50 in test [1] was > 133 µM; at Bile salt export pump, > 133 µM; in test [2] it was 24 µM; in test [3] it was > 133 µM.

Turning to `CO/N=C(\C(=O)N[C@@H]1C(=O)N2C(C(=O)OC(C)OC(C)=O)=C(COC(N)=O)CS[C@H]12)c1ccco1` (some centres undefined) [CEFUROXIME AXETIL], the IC50 in test [1] is > 133 µM; at Bile salt export pump it was > 133 µM; in test [2] it was 28 µM; in test [3], > 133 µM.

With `Cc1ccc(-c2cc(C(F)(F)F)nn2-c2ccc(S(N)(=O)=O)cc2)cc1` [CELECOXIB], the IC50 (in test [1]; on Bile salt export pump; in test [2]; in test [3]) was > 133 µM each time.

Turning to `O=C(O)CCCc1ccc(N(CCCl)CCCl)cc1` [CHLORAMBUCIL], the IC50 (in test [1]; at Bile salt export pump; in test [2]; in test [3]) was > 133 µM each time.

As to `CNC1=Nc2ccc(Cl)cc2C(c2ccccc2)=[N+]([O-])C1` [CHLORDIAZEPOXIDE], the IC50 in test [1] is > 133 µM; at Bile salt export pump it was 44.1 µM; in test [2] it was > 133 µM; in test [3] it was > 133 µM.

For the compound `Clc1cccc(N2CCNCC2)c1` [CHLOROPHENYLPIPERAZINE], the IC50 (in test [1]; at Bile salt export pump; in test [2]; in test [3]) was > 133 µM in each case.

`CN(C)CCC(c1ccc(Cl)cc1)c1ccccn1` (centres undefined) [CHLORPHENIRAMINE]: the IC50 (in test [1]; at Bile salt export pump; in test [2]; in test [3]) was > 133 µM each time.

`CN(C)CCCN1c2ccccc2Sc2ccc(Cl)cc21` [CHLORPROMAZINE]: the IC50 (in test [1]; at Bile salt export pump; in test [2]; in test [3]) was > 133 µM each time.

As to `CCCNC(=O)NS(=O)(=O)c1ccc(Cl)cc1` [CHLORPROPAMIDE], the IC50 (in test [1]; at Bile salt export pump; in test [2]; in test [3]) was > 133 µM each time.

Turning to `NS(=O)(=O)c1cc(C2(O)NC(=O)c3ccccc32)ccc1Cl` (centres undefined) [CHLORTHALIDONE], the IC50 (in test [1]; at Bile salt export pump; in test [2]; in test [3]) was > 133 µM in each case.

Consider `CC(C)C(=O)OCC(=O)[C@@]12O[C@H](C3CCCCC3)O[C@@H]1C[C@H]1[C@@H]3CCC4=CC(=O)C=C[C@]4(C)[C@H]3[C@@H](O)C[C@@]12C` [CICLESONIDE], for which the IC50 (in test [1]; at Bile salt export pump; in test [2]; in test [3]) was > 133 µM throughout.

As for `Nc1ccn(C[C@@H](CO)OCP(=O)(O)O)c(=O)n1` [CIDOFOVIR], the half-maximal inhibitory concentration (IC50) (in test [1]; at Bile salt export pump; in test [2]; in test [3]) was > 133 µM throughout.

With `c1ccc(C2(c3ccccc3)CC2C2=NCCN2)cc1` (centres undefined) [CIFENLINE], the IC50 (in test [1]; on Bile salt export pump; in test [2]; in test [3]) was > 133 µM throughout.

With `O=C1CCc2cc(OCCCCc3nnnn3C3CCCCC3)ccc2N1` [CILOSTAZOL], the IC50 is > 133 µM in test [1], > 133 µM at Bile salt export pump, 16.6 µM in test [2] and > 133 µM in test [3].

The record behind these values is ChEMBL document CHEMBL4028801, “A multifactorial approach to hepatobiliary transporter assessment enables improved therapeutic compound development” (Toxicol Sci, 2013).
